Test results: patent US20240208934A1, “ULK1/2 INHIBITORS AND THEIR USE THEREOF” (LifeArc, priority 2021, published 2024)

System: ULK
Experiment: ULK radiometric assay (33P incorporation onto MBP substrate, glass fiber capture filter)
Conditions: ULK Biochemical activity; 20 uM ATP, 0.2 mg/mL MBP; averages of at least two independent experiments
Summary of the method: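 ³³P transfer from 20 uM ATP onto 0.2 mg/mL MBP in Tris-HCl pH 7.5 with MgCl2, EGTA, BSA and β-mercaptoethanol, captured on glass fiber filters. Ten-point half-log dilutions at 10% DMSO final, duplicate wells normalized to DMSO controls; IC50 from four-parameter fit, averaged over ≥2 independent experiments.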

O=C(CCNc1nc(Nc2ccc3c(c2)CCNC3)ncc1C(F)(F)F)N1CCOCC1 [Example 67, 1-Morpholino-3-[[2-(1,2,3,4-tetrahydroisoquinolin-6-ylamino)-5-(trifluoromethyl)pyrimidin-4-yl]amino]propan-1-one]
IC50: < 200 nM
